# Active and inactive are the calls of the source.
# Legend:
# [1] = biological target: T1, E3 ubiquitin-protein ligase XIAP (Homo sapiens, UniProt P98170); experiment: Counter Screen using XIAP-Bir3 for Chemical Antagonists of Bir1/2 domains of IAP-family anti-apoptotic proteins. [Related pubchem assays (depositor defined):AID1018, AID1449, AID1514, AID1638, AID1749, AID1750, AID488957, AID488963]
# [2] = biological target: T2, Heat shock factor protein 1 (Mus musculus, UniProt P38532); experiment: decrease of HSF1-responsive luciferase luminescence – cell-based, NIH3T3, dose retest, confirmation (AID 2382); format: functional;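 also: NIH3T3 fibroblasts with HSF1-driven luciferase reporter stressed by proteasome inhibitor MG132; luminescence from HSF1-driven luciferase expression after 8 hours of MG132 stress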
# T2 sequence (P38532 whole entry): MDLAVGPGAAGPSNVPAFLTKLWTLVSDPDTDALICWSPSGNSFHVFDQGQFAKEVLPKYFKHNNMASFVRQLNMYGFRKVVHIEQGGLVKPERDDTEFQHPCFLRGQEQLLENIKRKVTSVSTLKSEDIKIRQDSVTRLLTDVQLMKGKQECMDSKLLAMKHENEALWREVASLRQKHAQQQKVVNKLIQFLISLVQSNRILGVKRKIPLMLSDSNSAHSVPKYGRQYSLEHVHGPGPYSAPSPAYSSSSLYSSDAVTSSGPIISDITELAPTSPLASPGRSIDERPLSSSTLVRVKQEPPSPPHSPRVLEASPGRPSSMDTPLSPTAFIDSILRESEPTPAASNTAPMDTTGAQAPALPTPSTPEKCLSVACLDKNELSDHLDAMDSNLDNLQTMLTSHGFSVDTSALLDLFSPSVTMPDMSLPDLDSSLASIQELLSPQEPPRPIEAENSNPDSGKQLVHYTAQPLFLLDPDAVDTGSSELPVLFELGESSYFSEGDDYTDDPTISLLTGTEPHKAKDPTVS
# [3] = biological target: T1, E3 ubiquitin-protein ligase XIAP; experiment: small molecules displacing peptide from XIAP – biochemical, IAP family, fluorescence polarization (AID 1018); format: functional
# [4] = Vero E6 cell cytotoxicity, dose response, cytotoxicity control for non-replicating M. tuberculosis project, secondary assay (AID 492998); format: functional, VeroE6; conditions: Vero C1008
# cells = format: functional
# [5] = THP-1 cell cytotoxicity, dose response, cytotoxicity control for non-replicating M. tuberculosis project (AID 489025); format: functional
# [6] = biological target: T3, RNA-binding protein pos-1 (Caenorhabditis elegans, UniProt G5EF15); experiment: disruptors of C. elegans POS-1 RNA interaction – biochemical, fluorescence polarization, dose response (AID 1964);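 also: purified POS-1 fused to maltose binding protein made in E. coli; potency of compounds blocking POS-1 binding to fluorescent RNA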
# T3 sequence (G5EF15 whole entry): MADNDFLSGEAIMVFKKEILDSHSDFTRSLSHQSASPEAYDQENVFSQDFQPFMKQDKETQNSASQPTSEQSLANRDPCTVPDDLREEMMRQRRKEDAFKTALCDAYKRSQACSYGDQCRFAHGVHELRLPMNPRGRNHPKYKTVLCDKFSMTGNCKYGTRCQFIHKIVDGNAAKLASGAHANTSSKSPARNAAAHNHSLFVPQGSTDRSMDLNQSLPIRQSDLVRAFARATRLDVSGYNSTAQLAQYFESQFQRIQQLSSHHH
# [7] = biological target: T4, Zinc finger protein mex-5 (Caenorhabditis elegans, UniProt Q9XUB2); experiment: potency of MEX-5 RNA-binding blockers – biochemical, C. elegans, fluorescence polarization, dose response (AID 1960)
# T4 sequence (Q9XUB2 whole entry): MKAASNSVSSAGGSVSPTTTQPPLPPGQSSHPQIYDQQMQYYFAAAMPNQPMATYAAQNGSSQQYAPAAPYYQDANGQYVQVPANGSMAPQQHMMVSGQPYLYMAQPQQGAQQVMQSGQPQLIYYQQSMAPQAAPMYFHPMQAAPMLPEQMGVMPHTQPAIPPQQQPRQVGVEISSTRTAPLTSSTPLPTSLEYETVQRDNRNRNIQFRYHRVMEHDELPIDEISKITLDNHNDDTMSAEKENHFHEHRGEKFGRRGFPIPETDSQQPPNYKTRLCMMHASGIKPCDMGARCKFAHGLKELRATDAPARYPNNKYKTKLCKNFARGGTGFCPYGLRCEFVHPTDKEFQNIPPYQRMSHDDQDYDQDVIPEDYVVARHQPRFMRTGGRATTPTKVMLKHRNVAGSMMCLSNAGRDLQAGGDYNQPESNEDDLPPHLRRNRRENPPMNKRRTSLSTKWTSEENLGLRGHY
# Ion channel NompC = Ion channel NompC (Danio rerio, UniProt Q7T1G6); experiment: Dose response cell-based high-throughput screening assay for agonists of the transient receptor potential channel N1 (TRPN1). [Related pubchem assays (depositor defined):AID1424, AID1448]; format: functional
# Mucolipin-3 = biological target: T5, Mucolipin-3 (Homo sapiens, UniProt Q8TDD5); experiment: Fluorescence counterscreen assay for […] agonists: dose response cell-based high-throughput screening assay to identify agonists of the transient receptor potential channel ML3 (TRPML3). [Related pubchem assays: 1424, 1448 ]; format: functional
# T5 sequence (Q8TDD5 whole entry): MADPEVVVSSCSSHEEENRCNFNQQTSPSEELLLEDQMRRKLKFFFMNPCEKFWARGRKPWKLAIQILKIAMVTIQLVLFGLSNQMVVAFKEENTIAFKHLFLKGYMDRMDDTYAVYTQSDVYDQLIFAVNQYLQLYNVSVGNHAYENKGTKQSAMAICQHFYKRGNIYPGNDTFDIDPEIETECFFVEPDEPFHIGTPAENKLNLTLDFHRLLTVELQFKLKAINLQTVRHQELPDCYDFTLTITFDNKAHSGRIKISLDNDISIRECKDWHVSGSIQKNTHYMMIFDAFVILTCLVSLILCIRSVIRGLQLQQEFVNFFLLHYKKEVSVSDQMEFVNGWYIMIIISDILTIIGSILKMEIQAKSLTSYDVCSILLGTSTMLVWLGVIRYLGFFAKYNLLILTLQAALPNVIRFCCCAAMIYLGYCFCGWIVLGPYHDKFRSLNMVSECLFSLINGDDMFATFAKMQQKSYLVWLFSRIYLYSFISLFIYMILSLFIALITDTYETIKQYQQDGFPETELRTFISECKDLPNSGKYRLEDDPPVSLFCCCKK
# Mu-type opioid receptor = Mu-type opioid receptor (Homo sapiens, UniProt P35372); experiment: HTS Image-Based Screen for Agonists of the MOR Receptor. [Related pubchem assays (depositor defined):AID1777, AID1785, AID1786, AID2133]; format: functional;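 also: imaging of beta-arrestin GFP recruitment into spots after receptor activation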
# [8] = biological target: T6, Kappa-type opioid receptor (Homo sapiens, UniProt P41145); format: functional
# Beta-galactosidase = Beta-galactosidase (Escherichia coli, UniProt Q8VNN2); format: functional
# Cytochrome P450 2D6 = Cytochrome P450 2D6 (Homo sapiens, UniProt P10635);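 also: CYP2D6 member of a cytochrome P450 panel assay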
# [9] = biological target: T7, Delta-type opioid receptor (Homo sapiens, UniProt P41143); experiment: HTS Image-Based Screen for Agonists of the DOR Receptor. [Related pubchem assays (depositor defined):AID1777, AID1786, AID2133]; format: functional
# [10] = biological target: T7, Delta-type opioid receptor; experiment: HTS Image-Based Screen for Antagonists of the DOR Receptor. [Related pubchem assays (depositor defined):AID1777, AID1785, AID1786, AID2133]; format: functional
# [11] = biological target: T6, Kappa-type opioid receptor; format: functional; remark: listed apart in the source
# T1 sequence (P98170 whole entry): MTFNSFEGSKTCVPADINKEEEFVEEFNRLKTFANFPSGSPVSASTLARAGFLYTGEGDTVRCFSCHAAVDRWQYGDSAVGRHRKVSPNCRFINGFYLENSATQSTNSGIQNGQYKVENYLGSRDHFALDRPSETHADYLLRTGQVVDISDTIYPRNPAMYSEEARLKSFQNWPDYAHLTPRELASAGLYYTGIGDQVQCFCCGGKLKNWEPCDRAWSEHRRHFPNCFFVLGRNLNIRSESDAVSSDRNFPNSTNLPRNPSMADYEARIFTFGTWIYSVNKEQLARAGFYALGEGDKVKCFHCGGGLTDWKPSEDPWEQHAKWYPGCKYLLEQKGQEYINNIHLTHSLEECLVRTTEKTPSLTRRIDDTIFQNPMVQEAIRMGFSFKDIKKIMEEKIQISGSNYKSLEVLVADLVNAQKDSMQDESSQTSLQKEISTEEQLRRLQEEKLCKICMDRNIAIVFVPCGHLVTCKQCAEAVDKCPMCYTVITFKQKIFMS
# T7 sequence (P41143 whole entry): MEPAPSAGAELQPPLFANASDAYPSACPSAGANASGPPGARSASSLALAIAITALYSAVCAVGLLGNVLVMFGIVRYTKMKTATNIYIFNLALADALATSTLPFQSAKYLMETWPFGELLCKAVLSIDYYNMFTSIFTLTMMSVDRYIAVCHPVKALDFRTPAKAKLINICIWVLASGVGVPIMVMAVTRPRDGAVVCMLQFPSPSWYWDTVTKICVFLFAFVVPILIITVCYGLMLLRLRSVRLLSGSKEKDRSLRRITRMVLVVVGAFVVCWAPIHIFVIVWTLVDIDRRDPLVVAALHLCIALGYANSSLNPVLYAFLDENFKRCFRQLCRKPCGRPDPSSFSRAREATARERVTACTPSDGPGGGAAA
# T6 sequence (P41145 whole entry): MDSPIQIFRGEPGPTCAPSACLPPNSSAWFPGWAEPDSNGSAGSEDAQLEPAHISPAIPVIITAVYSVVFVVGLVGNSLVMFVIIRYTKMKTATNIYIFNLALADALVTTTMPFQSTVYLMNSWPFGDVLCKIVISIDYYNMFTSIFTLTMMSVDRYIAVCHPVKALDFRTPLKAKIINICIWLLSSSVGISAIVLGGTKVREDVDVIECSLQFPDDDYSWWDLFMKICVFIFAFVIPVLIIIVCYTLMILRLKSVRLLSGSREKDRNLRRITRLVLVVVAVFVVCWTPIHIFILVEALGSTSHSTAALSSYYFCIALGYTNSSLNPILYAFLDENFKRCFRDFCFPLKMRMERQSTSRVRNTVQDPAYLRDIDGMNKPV
# Sequence of Ion channel NompC (Q7T1G6 whole entry): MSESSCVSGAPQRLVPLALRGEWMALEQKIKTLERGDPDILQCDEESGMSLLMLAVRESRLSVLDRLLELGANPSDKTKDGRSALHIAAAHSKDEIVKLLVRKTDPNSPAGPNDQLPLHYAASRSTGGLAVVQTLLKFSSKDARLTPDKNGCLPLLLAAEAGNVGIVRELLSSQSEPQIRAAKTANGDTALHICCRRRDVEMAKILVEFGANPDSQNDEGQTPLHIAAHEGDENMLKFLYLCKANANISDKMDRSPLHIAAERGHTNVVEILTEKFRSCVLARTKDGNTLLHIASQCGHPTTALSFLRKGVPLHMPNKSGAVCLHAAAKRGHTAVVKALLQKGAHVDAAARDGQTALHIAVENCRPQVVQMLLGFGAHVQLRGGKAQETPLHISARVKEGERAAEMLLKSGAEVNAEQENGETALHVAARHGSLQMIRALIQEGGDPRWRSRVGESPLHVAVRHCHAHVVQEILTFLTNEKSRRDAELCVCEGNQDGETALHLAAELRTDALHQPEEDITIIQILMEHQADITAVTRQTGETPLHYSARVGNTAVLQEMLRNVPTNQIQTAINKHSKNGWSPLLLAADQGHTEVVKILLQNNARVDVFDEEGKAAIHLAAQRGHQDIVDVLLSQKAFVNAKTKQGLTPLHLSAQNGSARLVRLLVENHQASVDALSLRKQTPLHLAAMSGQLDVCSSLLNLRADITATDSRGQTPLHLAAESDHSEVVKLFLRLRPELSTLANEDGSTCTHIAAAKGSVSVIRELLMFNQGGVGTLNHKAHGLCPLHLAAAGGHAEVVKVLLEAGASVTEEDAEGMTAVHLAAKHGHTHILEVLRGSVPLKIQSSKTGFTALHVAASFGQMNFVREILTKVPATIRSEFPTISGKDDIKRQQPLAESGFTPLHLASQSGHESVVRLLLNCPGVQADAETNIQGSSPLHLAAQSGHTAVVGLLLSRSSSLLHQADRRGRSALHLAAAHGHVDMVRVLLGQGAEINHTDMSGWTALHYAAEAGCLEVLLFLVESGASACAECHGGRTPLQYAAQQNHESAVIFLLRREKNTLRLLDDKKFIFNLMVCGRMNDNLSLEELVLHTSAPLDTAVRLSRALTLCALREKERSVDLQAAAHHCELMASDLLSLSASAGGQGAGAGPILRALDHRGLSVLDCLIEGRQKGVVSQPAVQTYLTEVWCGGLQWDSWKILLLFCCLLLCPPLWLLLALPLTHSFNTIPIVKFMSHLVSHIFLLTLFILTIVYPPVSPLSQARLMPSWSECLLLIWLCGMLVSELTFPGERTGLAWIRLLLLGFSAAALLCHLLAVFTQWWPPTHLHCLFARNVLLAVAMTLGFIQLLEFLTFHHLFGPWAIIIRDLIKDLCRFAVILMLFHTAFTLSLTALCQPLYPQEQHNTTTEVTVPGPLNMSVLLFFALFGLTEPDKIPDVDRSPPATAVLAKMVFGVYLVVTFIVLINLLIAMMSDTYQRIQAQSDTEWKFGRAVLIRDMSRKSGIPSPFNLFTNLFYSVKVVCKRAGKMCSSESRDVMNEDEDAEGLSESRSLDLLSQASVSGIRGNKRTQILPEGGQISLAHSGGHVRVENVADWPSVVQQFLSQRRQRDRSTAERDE
# Sequence of Cytochrome P450 2D6 (P10635 whole entry): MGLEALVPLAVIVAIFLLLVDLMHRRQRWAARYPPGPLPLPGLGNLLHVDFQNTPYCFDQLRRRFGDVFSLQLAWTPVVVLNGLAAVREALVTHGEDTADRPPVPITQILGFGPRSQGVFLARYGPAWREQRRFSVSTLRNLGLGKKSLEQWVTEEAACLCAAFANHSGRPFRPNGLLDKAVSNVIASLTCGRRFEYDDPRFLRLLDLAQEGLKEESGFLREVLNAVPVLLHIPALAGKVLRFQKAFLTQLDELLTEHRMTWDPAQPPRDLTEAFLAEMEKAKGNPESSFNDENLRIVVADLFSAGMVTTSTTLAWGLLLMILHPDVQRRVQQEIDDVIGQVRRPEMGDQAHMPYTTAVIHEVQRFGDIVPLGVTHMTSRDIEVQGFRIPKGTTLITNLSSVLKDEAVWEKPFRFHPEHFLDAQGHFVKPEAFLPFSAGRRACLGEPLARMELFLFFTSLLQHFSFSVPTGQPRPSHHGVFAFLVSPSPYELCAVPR
# Sequence of Mu-type opioid receptor (P35372 whole entry): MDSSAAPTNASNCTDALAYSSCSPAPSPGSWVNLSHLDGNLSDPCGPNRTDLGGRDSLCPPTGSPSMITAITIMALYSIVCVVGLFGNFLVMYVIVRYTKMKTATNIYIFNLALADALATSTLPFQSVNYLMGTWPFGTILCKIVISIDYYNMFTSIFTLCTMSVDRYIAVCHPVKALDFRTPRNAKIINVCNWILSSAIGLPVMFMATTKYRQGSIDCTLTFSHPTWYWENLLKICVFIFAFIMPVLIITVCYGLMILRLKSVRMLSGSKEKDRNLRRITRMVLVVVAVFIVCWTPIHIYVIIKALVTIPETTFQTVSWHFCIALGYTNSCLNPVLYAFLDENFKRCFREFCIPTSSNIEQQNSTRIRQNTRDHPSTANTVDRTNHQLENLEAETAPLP
# Sequence of Beta-galactosidase (Q8VNN2 whole entry): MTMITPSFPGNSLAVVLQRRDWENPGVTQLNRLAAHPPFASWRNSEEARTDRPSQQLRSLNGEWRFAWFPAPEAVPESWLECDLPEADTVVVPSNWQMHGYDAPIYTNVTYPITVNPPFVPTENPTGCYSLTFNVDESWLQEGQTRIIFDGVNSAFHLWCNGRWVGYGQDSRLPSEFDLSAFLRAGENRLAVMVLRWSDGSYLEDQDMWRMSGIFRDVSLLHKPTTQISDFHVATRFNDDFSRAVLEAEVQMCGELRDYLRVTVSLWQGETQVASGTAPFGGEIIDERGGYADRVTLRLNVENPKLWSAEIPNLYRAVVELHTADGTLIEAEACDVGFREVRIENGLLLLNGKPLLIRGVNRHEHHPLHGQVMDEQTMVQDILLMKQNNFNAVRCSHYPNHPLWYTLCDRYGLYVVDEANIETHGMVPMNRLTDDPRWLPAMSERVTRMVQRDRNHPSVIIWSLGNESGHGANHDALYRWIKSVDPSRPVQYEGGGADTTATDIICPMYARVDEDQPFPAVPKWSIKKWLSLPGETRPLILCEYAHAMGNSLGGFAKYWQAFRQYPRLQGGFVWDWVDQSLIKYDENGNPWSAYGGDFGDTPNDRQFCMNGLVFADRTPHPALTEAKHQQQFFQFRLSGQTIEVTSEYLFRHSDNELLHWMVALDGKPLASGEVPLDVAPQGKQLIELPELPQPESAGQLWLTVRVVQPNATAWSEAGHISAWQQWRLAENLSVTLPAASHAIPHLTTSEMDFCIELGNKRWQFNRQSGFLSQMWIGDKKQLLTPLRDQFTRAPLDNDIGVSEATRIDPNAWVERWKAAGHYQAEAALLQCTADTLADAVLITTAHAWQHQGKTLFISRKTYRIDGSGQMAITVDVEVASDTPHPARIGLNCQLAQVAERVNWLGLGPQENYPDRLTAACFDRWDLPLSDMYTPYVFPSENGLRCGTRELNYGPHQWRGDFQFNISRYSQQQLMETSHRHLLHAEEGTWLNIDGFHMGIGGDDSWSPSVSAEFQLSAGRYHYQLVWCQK
structure (smiles),measurement,setting,value
O=C(c1ccc(O)cc1)c1ccc(C(=O)O)c(C(=O)O)c1,IC50,[1],> 100 µM (inactive)
same,EC50,[2],> 195 µM (not active)
same,IC50,[3],> 100 µM (not active)
COc1cccc(/C=C2\SC(=S)N(CCC(=O)N3CCCCC3)C2=O)c1,CC50,[4],8.75 µM (active)
same,IC50,cells,17.2 µM (active)
same,CC50,[5],18.6 µM (active)
CC(C)/C=C1\CC/C(=C\c2ccc(N(C)C)cc2)C1=O,EC50,[6],> 300 µM (not active)
same,EC50,[7],> 300 µM (inconclusive)
same,EC50,Ion channel NompC,0.507 µM (active)
same,EC50,Mucolipin-3,1.9 µM (active)
COc1ccc(-c2csc(N3C(=N)SCC3=O)n2)cc1,EC50,Mu-type opioid receptor,> 32 µM (inactive)
same,IC50,[8],12.8 µM (active)
same,EC50,Beta-galactosidase,> 31.5 µM (inactive)
same,AC50,Cytochrome P450 2D6,11.2 µM (inconclusive)
same,EC50,[9],> 32 µM (inactive)
same,IC50,[10],> 32 µM (inactive)
same,IC50,[11],> 32 µM
